According to patent US20140073637A1, “AMINO-SUBSTITUTED-ALKYLOXY-BENZO[E]PYRIDO[4,3-B]INDOLE DERIVATIVES AS NEW POTENT KINASE INHIBITORS” (INSTITUT CURIE, priority 2011, published 2014):
Read-outs that look alike come from different tables or passages of the source.

Tests used:
HeLa cells = assay: Cell viability / antiproliferative assay; format: cell-based; details: HeLa cells, average of three independent experiments, concentration that induced 50% death, read-out: IC50 (in nM), antiproliferative assay
Excerpt: Antiproliferative assays with HeLa cells have been performed with the preferred compounds and compared to the C1 and C2. The average of three independent experiments is shown. IC50 obtained with C1 and C2 were previously reported in Hoang et al, 2009, and are indicated for comparison. The lateral chain of each molecule is recalled, knowing that all the molecules have an oxo group at position 11. IC50 are indicated, i.e. the concentration that induced 50% death.
H358, H322 (lung cancer cells), U373 (glioblastomes) and HeLa ([…]) were grown in DMEM (1.5 g/L glucose) whereas HL60 (human myeloid cell line) cells were in RPMI 1640. U2OS (a human osteosarcoma cell line) cells were cultured in McCoy's Medium 5 A and liver cells (SK Hep 1) in DMEM (4 g/L glucose, (Gibco-Invitrogen). Media (Gibco-Invitrogen), were supplemented with 10% heat-inactivated foetal bovine serum (Gibco-Invitrogen), L-glutamine (2 mM), penicillin (100 UI/ml) and streptomycin (100 μg/ml).
Cell proliferation assays were conducted in 96 well culture plates. Assays were run in triplicate. Cell viability was estimated upon 72 h of treatment with varying concentrations of compound by addition of CellTiter 96Queous one Solution Reagent (Promega) directly to culture wells under conditions defined by the manufacturer.

Aurora B = Aurora B (Homo sapiens, UniProt Q96GD4); assay: Aurora B inhibition in cells: Histone H3 Ser10 phosphorylation by western blotting and immunofluorescence; format: cell-based; design: endogenous in cells; host or cells: U2OS (human osteosarcoma); HeLa also used for the maleate salts; key to Aurora B inhibition: +++: very efficient inhibition; −: no inhibition; details: for Aurora B kinase inhibition of maleate salts (in words): U2OS and HeLa cells, 1 μM overnight with Nocodazole, immunoblotting (FIG. 11); for Aurora B inhibition: cells, Histone H3 Ser10 phosphorylation, western blotting and immunofluorescence, compounds 1 μM
Chain of Aurora B (Q96GD4 whole entry): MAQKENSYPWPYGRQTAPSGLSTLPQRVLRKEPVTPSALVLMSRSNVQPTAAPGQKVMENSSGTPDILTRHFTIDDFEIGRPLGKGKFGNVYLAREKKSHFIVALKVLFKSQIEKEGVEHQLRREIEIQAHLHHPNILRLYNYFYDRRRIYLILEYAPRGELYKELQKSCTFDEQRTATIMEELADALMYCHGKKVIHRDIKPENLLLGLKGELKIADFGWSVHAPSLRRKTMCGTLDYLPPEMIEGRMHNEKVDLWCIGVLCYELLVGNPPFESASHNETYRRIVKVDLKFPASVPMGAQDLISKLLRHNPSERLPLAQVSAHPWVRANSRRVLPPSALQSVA
Description: Actin is used as control of quantity. Cells were incubated overnight in the presence of either C1, or C2 or CH21 or C14 or DMSO(C: control). All compounds were tested at 1 μM. Proteins were detected by western blotting.
Cells were incubated with the different molecules and Aurora B inhibition is estimated by western blotting (WB) and immuno fluorescent experiments. Histone H3 phosphorylated on Ser10 is used as a marker of Aurora B kinase activity and actin as an internal control. Each WB signal is compared to the control in the absence of compound. The efficiency estimated by WB is indicated by +++: very efficient inhibition to −: no inhibition. Immunofluorescent labelling of a mitotic cell by Histone H3 illustrates Aurora B kinase activity. However immunofluorescence is less sensitive than WB. Active molecules are underlined by a square and the intensity of the line indicates the efficiency of inhibition.
FIG. 10A: Immunofluorescence with phospho-Ser10-Histone H3 antibodies. Either the percentage of positive phospho-Ser10-Histone H3 is indicated or a representative mitosis shown. […] Immunofluorescent assays were realized with a specific phospho-antibody and mitotic U2OS cells are recognized by their DNA content stained with Hoechst. On the right, a representative cell or the percentage of H3-S10-P labelled mitosis.
(§1) FIG. 10B: Immunoblotting analysis of histone H3 phosphorylation. U2OS cells were incubated overnight with Nocodazole (50 nM) in the presence of either DMSO (Co) or Compounds (1 μM). Cells were then collected and lyzed. Identical amounts of the lyzed cell samples were run on 18% acrylamide gel containing SDS.
as §1, with “FIGS. 11B and 11C:” for “FIG. 10B:”, “U2OS and HeLa” for “U2OS”
Cells were incubated with the different molecules and Aurora B inhibition is estimated by western blotting and immunofluorescent experiments. Histone H3 phosphorylated on Ser10 is used as a marker of Aurora B kinase activity and actin as an internal control. Results are represented in FIGS. 4 and 10 and Table 3.
(§2) Cells were treated by compounds, harvested and lyzed in 9M urea then supplemented with Laemmli sample buffer. Cell extracts were subjected to SDS-PAGE and transferred to nitrocellulose filter (GE Healthcare). After blocking with 5% non-fat milk in PBS for at least 1 hour, the membranes were incubated with the primary antibodies. The following antibodies were used: phospho-Histone H3 Ser10 (1:2000, Upstate Biotechnology), anti LAST1 (Cell signalling), anti Aurora B (epitomics) and anti alpha-tubulin (Sigma) Anti-rabbit horseradish peroxidase (1:5000, GE Healthcare) was used as secondary antibodies. Bands were visualized by ECL technique (Amersham Bioscience).
Cells were seeded on glass coverslips and treated by compounds (1 μM) overnight. After treatment, cells were fixed in 4% formaldhehyde at 37° C. for 15 minutes, then permeabilized for 5 minutes with Triton X-100 in PBS.

NUAK1 [1] = biological target: T1, NUAK1 (Homo sapiens, UniProt O60285); assay: In vitro IC50 on recombinant kinase; format: biochemical
T1 construct: Reaction biology Corp (USA), service
T1 sequence (O60285 1-661): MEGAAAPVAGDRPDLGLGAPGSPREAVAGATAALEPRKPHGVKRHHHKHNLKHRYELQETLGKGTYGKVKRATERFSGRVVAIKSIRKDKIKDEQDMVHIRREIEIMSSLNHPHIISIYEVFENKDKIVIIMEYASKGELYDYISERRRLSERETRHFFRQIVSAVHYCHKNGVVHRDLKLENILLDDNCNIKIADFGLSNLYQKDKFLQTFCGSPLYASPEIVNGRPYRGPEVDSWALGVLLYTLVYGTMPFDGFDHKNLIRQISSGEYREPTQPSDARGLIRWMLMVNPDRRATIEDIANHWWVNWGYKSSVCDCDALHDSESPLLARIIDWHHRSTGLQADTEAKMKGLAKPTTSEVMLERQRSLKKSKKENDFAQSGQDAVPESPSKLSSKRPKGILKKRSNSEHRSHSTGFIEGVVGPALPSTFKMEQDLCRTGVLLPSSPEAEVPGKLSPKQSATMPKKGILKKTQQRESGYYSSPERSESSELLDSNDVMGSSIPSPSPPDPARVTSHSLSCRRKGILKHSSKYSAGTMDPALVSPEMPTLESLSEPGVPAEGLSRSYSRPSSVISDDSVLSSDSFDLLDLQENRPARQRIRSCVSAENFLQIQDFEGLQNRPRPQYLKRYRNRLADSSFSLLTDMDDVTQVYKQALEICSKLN
Description: The efficiency of the 3-amino-ethoxy compounds to inhibit Nuak1 was determined in vitro.
The profiling was performed at the MRC (Dundee University), in duplicate, on a set of 121 kinases. The panel is representative of the major different classes of kinases. Compounds were used at the concentration of 1 μM. In vitro, IC50 were determined on recombinant kinases by Reaction biology Corp (USA).

NUAK1 [2] = biological target: T1, NUAK1; assay: Nuak1 inhibition in cellulo: LATS1 stabilization by western blot; format: cell-based; details: HeLa cells treated ON; whole cell extracts, WB, compared to control
Description: HeLa cells were treated ON by C21 (also named CH21) and C14M and compared to the control (C0). Whole cell extracts were analyzed by WB with anti LATS1 monoclonal antibody and the loading was quantified through the tubulin signal.
Therefore the possibility of inhibiting Nuakl, in cellulo, was evaluated through the stabilization of the Large Antigen Tumour Suppressor LATS1.
as §2

| SMILES | Aurora B inhibition (Aurora B) | other results |
| --- | --- | --- |
| CCc1c[nH]c(=O)c2c1[nH]c1ccc3cc(OCCN(C)C)ccc3c12 [Compound C48M, 3-(2-N,N-dimethylaminoethoxy)-8-ethyl-7H,11H-benzo[e]pyrido(4,3-b)indol-11-one] |  | IC50 (HeLa cells): 63 ± 17 nM; Aurora B kinase inhibition of maleate salts (in words) (Aurora B): maintained |
| Cc1cncc2c1[nH]c1ccc3cc(OCCCN(C)C)ccc3c12 [Compound C23, 3-(3-N,N-dimethylaminopropoxy)-8-methyl-7H-benzo[e]pyrido(4,3-b)indole] | − |  |
| Cc1c[nH]c(=O)c2c1[nH]c1ccc3cc(OCCN4CCOCC4)ccc3c12 [Compound C07, 3-(2-(Morpholin-4-yl)ethoxy)-8-methyl-7H,10H-benzo[e]pyrido(4,3-b)indol-11-one] | +++ | IC50 (NUAK1 [1]): 1.6 nM; IC50 (HeLa cells): 107 ± 12 nM |
| CCc1c[nH]c(=O)c2c1[nH]c1ccc3cc(OCCN(C)C)ccc3c12 [Compound C48, 3-(2-N,N-dimethylaminoethoxy)-8-ethyl-7H,11H-benzo[e]pyrido(4,3-b)indol-11-one] | +++ | IC50 (NUAK1 [1]): 5.7 nM; IC50 (HeLa cells; Homo sapiens, HeLa): 53 ± 3 nM |
| COc1ncc(C)c2[nH]c3ccc4cc(OCCN(C)C)ccc4c3c12 [Compound C12, 11-Methoxy-3-(2-N,N-dimethylaminoethoxy)-8-methyl-7H-benzo[e]pyrido(4,3-b)indole] | − |  |
| COc1ccc2c(c1)CCc1[nH]c3c(C)c[nH]c(=O)c3c1-2 [Compound C11, reference compound] | − |  |
| Cc1cnc(Cl)c2c1[nH]c1ccc3cc(OCCN4CCOCC4)ccc3c12 [Compound C05, 11-Chloro-3-(2-(morpholin-4-yl)ethoxy)-8-methyl-7H-benzo[e]pyrido(4,3-b)indole] | − |  |
| Cc1c[nH]c(=O)c2c1[nH]c1ccc3cc(OCCN4CCOCC4)ccc3c12 [Compound C07M, 3-(2-(Morpholin-4-yl)ethoxy)-8-methyl-7H,10H-benzo[e]pyrido(4,3-b)indol-11-one] |  | IC50 (HeLa cells): 287 ± 32 nM; Aurora B kinase inhibition of maleate salts (in words) (Aurora B): maintained |
| CCc1cnc(Cl)c2c1[nH]c1ccc3cc(OCCN(C)C)ccc3c12 [Compound C40, 11-Chloro-3-(2-N,N-dimethylaminoethoxy)-8-ethyl-7H-benzo[e]pyrido(4,3-b)indole] | − |  |
| Cc1c[nH]c(=O)c2c1[nH]c1ccc3cc(OCCN(C)C)ccc3c12 [Compound C14M, 3-(2-N,N-Dimethylaminoethoxy)-8-methyl-7H,10H-benzo[e]pyrido(4,3-b)indol-11-one] |  | IC50 (HeLa cells): 114 ± 82 nM; Aurora B kinase inhibition of maleate salts (in words) (Aurora B): maintained; LATS1 protein level (in words) (NUAK1 [2]): large increase |

More lines, main results first:

| Aurora B inhibition (Aurora B) | SMILES | other results |
| --- | --- | --- |
| − | Cc1cnc(Cl)c2c1[nH]c1ccc3cc(OCCN4CCCCC4)ccc3c12 [Compound C709, 11-Chloro-3-(2-(piperidin-1-yl)ethoxy)-8-methyl-7H-benzo[e]pyrido(4,3-b)indole] |  |
| − | COCCOc1ccc2c(ccc3[nH]c4c(C)cnc(Cl)c4c32)c1 [Compound C708, 11-Chloro-3-(2-methoxyethoxy)-8-methyl-7H-benzo[e]pyrido(4,3-b)indole] |  |
| − | COCCOc1ccc2c(ccc3[nH]c4c(C)c[nH]c(=O)c4c32)c1 [Compound C711, 3-(2-Methoxyethoxy)-8-methyl-7H,10H-benzo[e]pyrido(4,3-b)indol-11-one] |  |
| +++ | Cc1c[nH]c(=O)c2c1[nH]c1ccc3cc(OCCN4CCCCC4)ccc3c12 [Compound C710, 3-(2-(Piperidin-1-yl)ethoxy)-8-methyl-7H,10H-benzo[e]pyrido(4,3-b)indol-11-one] |  |
